This passage reports T/C results from PubChem BioAssay AID248 (DTP/NCI, 2004).

Structures are written as SMILES. Where “and” joins values, the source holds several entries; their conditions need not be identical. Equal values may be shown once. Inconclusive results and toxic doses are left out.

This assay concerns L1210 leukemia ip in BDF1 mice, survival T/C. The assay is described as follows: NCI In Vivo Anticancer Drug Screen. Data for tumor model L1210 Leukemia (intraperitoneal) in B6D2F1 (BDF1) mice. The note with it: higher = longer survival. The method, boiled down: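 Survival endpoint. Drug-treated group vs vehicle group, expressed as T divided by C. Tumor passaged by transplantation.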

The mark [1] stands for this setting: endpoint: mean survival time, dose: 50.0 mg/kg/injection, schedule: Q04DX003 (ip), vehicle: Klucel (hydroxypropylcellulose) (HPC).
Where [2] appears, read: endpoint: mean survival time, dose: 100.0 mg/kg/injection, schedule: Q01DX001 (ip), vehicle: Klucel (hydroxypropylcellulose) (HPC).
[3] abbreviates: endpoint: mean survival time, dose: 100.0 mg/kg/injection, schedule: Q01DX009 (ip), vehicle: Klucel (hydroxypropylcellulose) (HPC).
The mark [4] stands for this setting: endpoint: mean survival time, dose: 100.0 mg/kg/injection, schedule: Q04DX003 (ip), vehicle: Klucel (hydroxypropylcellulose) (HPC).
The mark [5] stands for this setting: endpoint: mean survival time, dose: 200.0 mg/kg/injection, schedule: Q01DX001 (ip), vehicle: Klucel (hydroxypropylcellulose) (HPC).
Setting [6] is: endpoint: mean survival time, dose: 200.0 mg/kg/injection, schedule: Q01DX009 (ip), vehicle: Klucel (hydroxypropylcellulose) (HPC).
Where [7] appears, read: endpoint: mean survival time, dose: 200.0 mg/kg/injection, schedule: Q04DX003 (ip), vehicle: Klucel (hydroxypropylcellulose) (HPC).
Setting [8] is: endpoint: mean survival time, dose: 100.0 mg/kg/injection, schedule: Q01DX009 (ip), vehicle: saline with Tween-80.
The mark [9] stands for this setting: endpoint: mean survival time, dose: 200.0 mg/kg/injection, schedule: Q01DX009 (ip), vehicle: saline with Tween-80.
Where [10] appears, read: endpoint: mean survival time, dose: 12.5 mg/kg/injection, schedule: Q04DX003 (ip), vehicle: Klucel (hydroxypropylcellulose) (HPC).
The mark [11] stands for this setting: endpoint: mean survival time, dose: 100.0 mg/kg/injection, schedule: Q01DX001 (ip), vehicle: saline.
Where [12] appears, read: endpoint: mean survival time, dose: 200.0 mg/kg/injection, schedule: Q01DX001 (ip), vehicle: saline.

Turning to `CCOc1ccc(N=Nc2c(O)n(-c3ccccc3OC)c(=S)n(-c3ccccc3OC)c2=O)cc1`, the T/C runs as follows: (endpoint: mean survival time, dose: 75.0 mg/kg/injection, schedule: Q01DX003 (ip), vehicle: Klucel (hydroxypropylcellulose) (HPC)) 96 % of control; (endpoint: mean survival time, dose: 100.0 mg/kg/injection, schedule: Q01DX003 (ip), vehicle: Klucel (hydroxypropylcellulose) (HPC)) 96 % of control; (endpoint: mean survival time, dose: 200.0 mg/kg/injection, schedule: Q01DX003 (ip), vehicle: Klucel (hydroxypropylcellulose) (HPC)) 91 % of control.

Consider `Nc1nc(=S)[nH]c(C(=O)O)c1Oc1ccccc1`, for which the T/C (endpoint: mean survival time, dose: 50.0 mg/kg/injection, schedule: Q01DX009 (ip), vehicle: Klucel (hydroxypropylcellulose) (HPC)) is 87 % of control; the T/C under setting [1] is 86 % of control; the T/C under setting [2] is 92 % of control; the T/C under setting [3] was 102 % of control; the T/C under setting [4] is 89 % of control; the T/C under setting [5] is 94 % of control. For the same compound, the T/C by setting is: under setting [6], 95 % of control; under setting [7], 87 % of control.

For the compound `Clc1nc2ccccc2nc1Cl`, the T/C by setting is: (endpoint: mean survival time, dose: 12.5 mg/kg/injection, schedule: Q04DX003 (sc), vehicle: olive oil, sesame oil, peanut oil) 98 % of control; (endpoint: mean survival time, dose: 25.0 mg/kg/injection, schedule: Q04DX003 (sc), vehicle: olive oil, sesame oil, peanut oil) 109 % of control.

On to `CC1CCCCC1C(=O)N1CCCC1` (stereo not given), for which the T/C runs as follows: (endpoint: mean survival time, dose: 100.0 mg/kg/injection, schedule: Q04DX002 (ip), vehicle: saline) 101 % of control; (endpoint: mean survival time, dose: 200.0 mg/kg/injection, schedule: Q04DX002 (ip), vehicle: saline) 105 % of control.

In the case of `O=Nc1ccc(O)c(=O)cc1`, the T/C by setting is: (endpoint: mean survival time, dose: 1.0 mg/kg/injection, schedule: Q01DX009 (ip), vehicle: saline) 90 % of control; (endpoint: mean survival time, dose: 1.0 mg/kg/injection, schedule: Q04DX003 (ip), vehicle: saline) 100 % of control; (endpoint: mean survival time, dose: 2.0 mg/kg/injection, schedule: Q01DX009 (ip), vehicle: saline) 90 % of control; (endpoint: mean survival time, dose: 2.0 mg/kg/injection, schedule: Q04DX003 (ip), vehicle: saline) 97 % of control; (endpoint: mean survival time, dose: 4.0 mg/kg/injection, schedule: Q01DX009 (ip), vehicle: saline) 97 % of control; (endpoint: mean survival time, dose: 4.0 mg/kg/injection, schedule: Q04DX003 (ip), vehicle: saline) 109 % of control.

In the case of `Nc1nc(N)c2nc(COc3ccc(C(=O)NC(CCC(=O)O)C(=O)O)cc3)cnc2n1` (stereo not given), the T/C by setting is: (endpoint: mean survival time, dose: 0.5 mg/kg/injection, schedule: Q01DX009 (ip), vehicle: sodium bicarbonate) 122 % of control; (endpoint: mean survival time, dose: 0.8 mg/kg/injection, schedule: Q01DX009 (ip), vehicle: sodium bicarbonate) 122 % of control; (endpoint: mean survival time, dose: 2.5 mg/kg/injection, schedule: Q01DX009 (ip), vehicle: sodium bicarbonate) 122 % of control; (endpoint: mean survival time, dose: 5.0 mg/kg/injection, schedule: Q01DX009 (ip), vehicle: sodium bicarbonate) 100 % of control and 90 % of control.

In the case of `COC(=O)C12CCC(=O)CC1(O)c1ccc(OC)cc1CC2` (stereo not given), the T/C was 104 % of control under setting [2]; 107 % of control under setting [5]; 107 % of control (endpoint: mean survival time, dose: 400.0 mg/kg/injection, schedule: Q01DX001 (ip), vehicle: Klucel (hydroxypropylcellulose) (HPC)).

`O=C(NCC(O)CI)c1ccc([N+](=O)[O-])cc1` (stereo not given): the T/C was 104 % of control under setting [8]; 102 % of control under setting [9]; 89 % of control (endpoint: mean survival time, dose: 400.0 mg/kg/injection, schedule: Q01DX009 (ip), vehicle: saline with Tween-80).

On to `Brc1cscc1-c1c2ccccc2cc2ccccc12`, for which the T/C by setting is: (endpoint: mean survival time, dose: 50.0 mg/kg/injection, schedule: Q01DX009 (ip), vehicle: saline with Tween-80) 106 % of control; under setting [8], 98 % of control; under setting [9], 98 % of control.

In the case of `CC1(C)C(=O)N(Br)C(=O)N1Br`, the T/C under setting [10] was 92 % of control; the T/C (endpoint: mean survival time, dose: 25.0 mg/kg/injection, schedule: Q04DX003 (ip), vehicle: Klucel (hydroxypropylcellulose) (HPC)) was 103 % of control; the T/C under setting [1] is 103 % of control.

Turning to `CC(C)OC(CCC#N)c1ccccc1` (stereo not given), the T/C runs as follows: under setting [3], 101 % of control; under setting [4], 102 % of control; under setting [6], 98 % of control; under setting [7], 96 % of control; (endpoint: mean survival time, dose: 400.0 mg/kg/injection, schedule: Q04DX003 (ip), vehicle: Klucel (hydroxypropylcellulose) (HPC)) 102 % of control.

With `CC1CN1C(=O)Nc1cccc2c(NC(=O)N3CC3C)cccc12` (stereo not given), the T/C (endpoint: mean survival time, dose: 1.58 mg/kg/injection, schedule: Q01DX009 (ip), vehicle: Klucel (hydroxypropylcellulose) (HPC)) is 95 % of control; the T/C (endpoint: mean survival time, dose: 2.38 mg/kg/injection, schedule: Q01DX009 (ip), vehicle: Klucel (hydroxypropylcellulose) (HPC)) was 101 % of control; the T/C (endpoint: mean survival time, dose: 12.34 mg/kg/injection, schedule: Q01DX009 (ip), vehicle: Klucel (hydroxypropylcellulose) (HPC)) was 122 % of control; the T/C under setting [10] was 117 % of control; the T/C (endpoint: mean survival time, dose: 35.0 mg/kg/injection, schedule: Q04DX003 (ip), vehicle: Klucel (hydroxypropylcellulose) (HPC)) was 105 % of control; the T/C (endpoint: mean survival time, dose: 50.0 mg/kg/injection, schedule: Q01DX001 (ip), vehicle: Klucel (hydroxypropylcellulose) (HPC)) is 118 % of control and 121 % of control. Further, the T/C under setting [1] was 157 % of control; the T/C (endpoint: mean survival time, dose: 55.0 mg/kg/injection, schedule: Q04DX003 (ip), vehicle: Klucel (hydroxypropylcellulose) (HPC)) is 207 % of control; the T/C (endpoint: mean survival time, dose: 75.0 mg/kg/injection, schedule: Q01DX001 (ip), vehicle: Klucel (hydroxypropylcellulose) (HPC)) is 119 % of control; the T/C (endpoint: mean survival time, dose: 75.0 mg/kg/injection, schedule: Q04DX003 (ip), vehicle: Klucel (hydroxypropylcellulose) (HPC)) was 117 % of control; the T/C (endpoint: mean survival time, dose: 85.0 mg/kg/injection, schedule: Q01DX009 (ip), vehicle: Klucel (hydroxypropylcellulose) (HPC)) is 89 % of control; the T/C (endpoint: mean survival time, dose: 85.0 mg/kg/injection, schedule: Q04DX003 (ip), vehicle: Klucel (hydroxypropylcellulose) (HPC)) is 116 % of control. Also, the T/C was 118 % of control (endpoint: mean survival time, dose: 170.0 mg/kg/injection, schedule: Q04DX003 (ip), vehicle: Klucel (hydroxypropylcellulose) (HPC)) and 88 % of control under setting [5].

`[N-]=[N+]=NC1=NN2NNN=C2C(N)=C1`: the T/C was 105 % of control under setting [11] and 107 % of control under setting [12].

`Cc1cc2c(C)c3nc4ccccc4c3c(C)c2c[nH]1`: the T/C is, setting by setting: (endpoint: mean survival time, dose: 50.0 mg/kg/injection, schedule: Q01DX001 (ip), vehicle: saline) 107 % of control; under setting [11], 98 % of control; under setting [12], 101 % of control; (endpoint: mean survival time, dose: 400.0 mg/kg/injection, schedule: Q01DX001 (ip), vehicle: saline) 107 % of control; (endpoint: mean survival time, dose: 800.0 mg/kg/injection, schedule: Q01DX001 (ip), vehicle: saline) 110 % of control; (endpoint: mean survival time, dose: 1600.0 mg/kg/injection, schedule: Q01DX001 (ip), vehicle: saline) 118 % of control.

Turning to `CCC[CH2][Sn]([CH2]CCC)([CH2]CCC)[CH2]c1ccccc1`, the T/C was 98 % of control (endpoint: mean survival time, dose: 100.0 mg/kg/injection, schedule: Q04DX003 (ip), vehicle: saline); 102 % of control (endpoint: mean survival time, dose: 200.0 mg/kg/injection, schedule: Q04DX003 (ip), vehicle: saline); 88 % of control (endpoint: mean survival time, dose: 400.0 mg/kg/injection, schedule: Q04DX003 (ip), vehicle: saline).

As for `CCCCCCCCCCCCCCCCCCCCCC(=O)Nc1ccn(C2OC(CO)C(O)C2O)c(=O)n1` (stereo not given), the T/C (endpoint: median survival time, dose: 25.0 mg/kg/injection, schedule: Q01DX009 (ip), vehicle: saline with Tween-80) is 217 % of control; the T/C (endpoint: median survival time, dose: 50.0 mg/kg/injection, schedule: Q01DX009 (ip), vehicle: saline with Tween-80) is 234 % of control; the T/C (endpoint: median survival time, dose: 100.0 mg/kg/injection, schedule: Q01DX009 (ip), vehicle: saline with Tween-80) is 234 % of control; the T/C (endpoint: median survival time, dose: 200.0 mg/kg/injection, schedule: Q01DX009 (ip), vehicle: saline with Tween-80) is 382 % of control; the T/C (endpoint: median survival time, dose: 400.0 mg/kg/injection, schedule: Q01DX009 (ip), vehicle: saline with Tween-80) is 340 % of control.

Regarding `O=S(=O)(O)Nc1ccc(Cl)cc1`, the T/C was 102 % of control (endpoint: mean survival time, dose: 25.0 mg/kg/injection, schedule: Q04DX002 (ip), vehicle: Klucel (hydroxypropylcellulose) (HPC)); 102 % of control (endpoint: mean survival time, dose: 50.0 mg/kg/injection, schedule: Q04DX002 (ip), vehicle: Klucel (hydroxypropylcellulose) (HPC)); 102 % of control (endpoint: mean survival time, dose: 100.0 mg/kg/injection, schedule: Q04DX002 (ip), vehicle: Klucel (hydroxypropylcellulose) (HPC)).
